Tests used:
[1] = tested on: exposed dental pulp of maxillary first molar; experiment: Pulp exposure (class I cavity) in maxillary first molar, H&E histology of sections four weeks after treatment; assay type: in vivo, C57BL/6J mice; conditions: mice
Description: (§1) In order to test this hypothesis, a class I cavity extending into the dentin and almost to the pulp was prepared on the occlusal surface of the maxillary first molar after anesthesia in five to six week old C57BL/6J mice. The cavity was prepared using a 0.3-0.5 millimeter diameter carbide bur. An endodontic hand file with a tip diameter of 0.06-0.10 millimeter was used to create a mechanical break in the thin dentin overlying the dental pulp, thereby creating a cavity that included exposed dentin and exposed pulp.
(§2) For the control group of mice, after hemostasis, a one-step, dual-cure, self-etching bonding agent (SCOTCHBOND™ Universal Adhesive; 3M ESPE, St. Paul, Minnesota, USA) was applied to exposed dentin according to the manufacturer's instructions and cured for 20-40 seconds using a dental curing light operated at 420-480 nanometers and 1200-2000 milliwatts/centimeter^2. ProRoot™ MTA (Mineral Trioxide Aggregate) root canal repair material (Dentsply Sirona, Tulsa Dental Specialties, Johnson City, Tennessee, USA) was prepared according to manufacturer's instructions by mixing powder and liquid components in equal proportions to form a dough. The dough was packed over the exposed pulp according to manufacturer's instructions. The cavity was then sealed with FILTEK™ Supreme Ultra Universal Restorative (3M ESPE, St. Paul, Minnesota, USA), which was applied to the cured adhesive and the root canal repair material, then cured for 20-40 seconds using a dental curing light operated at 420-480 nanometers and 1200-2000 milliwatts/centimeter^2.
For the test group of mice, after hemostasis, a one-step, dual-cure, self-etching bonding agent (SCOTCHBOND™ Universal Adhesive; 3M ESPE, St. Paul, Minnesota, USA) was applied to exposed dentin according to the manufacturer's instructions and cured for 20-40 seconds using a dental curing light operated at 420-480 nanometers and 1200-2000 milliwatts/centimeter^2. Prior to being applied, the AHA solution was divided into two parts of equal volume to mix in the photoinitiators and the redox (self-cure) initiator components. […]

[2] = tested on: exposed dental pulp of maxillary first molar; experiment: Pulp exposure (class I cavity) in maxillary first molar, microCT of maxilla six weeks after treatment; assay type: in vivo, C57BL/6J mice; conditions: mice, six weeks after dental procedure; longitudinal section, cured restorative removed before imaging
Description: as §1
as §2, with “The cavity was then sealed with FILTEK™ Supreme Ultra Universal Restorative (3M ESPE, St. Paul, Minnesota, USA), which was applied to the cured adhesive and the root canal repair material, then cured for 20-40 seconds using a dental curing light operated at 420-480 nanometers and 1200-2000 milliwatts/centimeter^2.” left out

C=CC(=O)Oc1ccccc1N=Nc1ccccc1O [AHA, 2-Acryloyloxy-2′-hydroxy-azobenzene]
appearance of gingiva around the site of application (inflammation, dysplasia) [1]: healthy without any signs of inflammation or dysplasia
formation of dentinal bridge at the site of pulp exposure (H&E stained sections) ([1]; 2.5 to 12.5 micrograms AHA per restoration applied to exposed pulp, light-cured under FILTEK restorative): closed by formation of a dentinal bridge generated by reparative dentin formation
state of dental pulp by microscopy (vitality, inflammation, dysplastic changes) ([1]; H&E sections): vital pulp without any evidence of chronic or acute inflammation or dysplastic changes
formation of a calcified dentinal bridge at the pulp exposure site (microCT) [2]: pulp exposure site closed by a calcified dentinal bridge

From patent US20250127689A1, “METHOD OF STIMULATING DENTIN FORMATION WITH HYDROXY-SUBSTITUTED AZOBENZENE MATERIALS” (The Regents of the University of Colorado, a body corporate, priority 2022, published 2025)
